Reference: patent publication US11083725B2 (priority 2014, dated 2021)

Tested on: NHBE cells
Assay: Biolog metabolic array: substrate use by NHBE cells with or without CA09 infection
Assay type: cell-based, human
[1] = Control (uninfected) NHBE cells
[2] = Virus (CA09-infected NHBE cells, MOI 1)
[3] = Virus: CA09-infected NHBE cells, MOI 1, Biolog PMM2

## O=C(O)C[C@@H](O)C(=O)O [D-Malic Acid]
[1]
  590 nm absorbance normalized to zero hour (substrate use), 0 hr: 1.00
  590 nm absorbance normalized to zero hour (substrate use), 1 hr: 1.49
  590 nm absorbance normalized to zero hour (substrate use), 2 hr: 2.03
  590 nm absorbance normalized to zero hour (substrate use), 3 hr: 2.06
  590 nm absorbance normalized to zero hour (substrate use), 4 hr: 2.25
  590 nm absorbance normalized to zero hour (substrate use), 6 hr: 2.19
  590 nm absorbance normalized to zero hour (substrate use), 8 hr: 3.00
  590 nm absorbance normalized to zero hour (substrate use), 9 hr: 3.06
  590 nm absorbance normalized to zero hour (substrate use), 10 hr: 3.20
  590 nm absorbance normalized to zero hour (substrate use), 11 hr: 3.52
Control (uninfected) NHBE cells, Biolog PMM2, 0 hr
  Substrate use, 590 nm absorbance normalized to zero hour, 0 hr: 1.00
Control (uninfected) NHBE cells, Biolog PMM2, 1 hr
  Substrate use, 590 nm absorbance normalized to zero hour, 1 hr: 1.49
Control (uninfected) NHBE cells, Biolog PMM2, 5 hr
  Substrate use, 590 nm absorbance normalized to zero hour, 5 hr: 2.63
Control (uninfected) NHBE cells, Biolog PMM2, 7 hr
  Substrate use, 590 nm absorbance normalized to zero hour, 7 hr: 2.87
[2]
  590 nm absorbance normalized to zero hour (substrate use), 0 hr: 1.00
  590 nm absorbance normalized to zero hour (substrate use), 1 hr: 2.26
  590 nm absorbance normalized to zero hour (substrate use), 2 hr: 2.49
  590 nm absorbance normalized to zero hour (substrate use), 3 hr: 2.54
  590 nm absorbance normalized to zero hour (substrate use), 4 hr: 2.71
  590 nm absorbance normalized to zero hour (substrate use), 5 hr: 2.61
  590 nm absorbance normalized to zero hour (substrate use), 6 hr: 1.75
  590 nm absorbance normalized to zero hour (substrate use), 7 hr: 1.82
  590 nm absorbance normalized to zero hour (substrate use), 8 hr: 1.98
  590 nm absorbance normalized to zero hour (substrate use), 9 hr: 1.95
  590 nm absorbance normalized to zero hour (substrate use), 10 hr: 2.27
  590 nm absorbance normalized to zero hour (substrate use), 11 hr: 2.21
[3]
  590 nm absorbance normalized to zero hour (substrate use), 0 hr: 1.00
  590 nm absorbance normalized to zero hour (substrate use), 1 hr: 2.26
  590 nm absorbance normalized to zero hour (substrate use), 2 hr: 2.49
  590 nm absorbance normalized to zero hour (substrate use), 3 hr: 2.54
  590 nm absorbance normalized to zero hour (substrate use), 4 hr: 2.71
  590 nm absorbance normalized to zero hour (substrate use), 5 hr: 2.61
  590 nm absorbance normalized to zero hour (substrate use), 6 hr: 1.75
  590 nm absorbance normalized to zero hour (substrate use), 7 hr: 1.82
  590 nm absorbance normalized to zero hour (substrate use), 8 hr: 1.98
  590 nm absorbance normalized to zero hour (substrate use), 9 hr: 1.95
  590 nm absorbance normalized to zero hour (substrate use), 10 hr: 2.27
  590 nm absorbance normalized to zero hour (substrate use), 11 hr: 2.21
